Experimental data as given in patent publication US11390646B2, “Structure-based peptide inhibitors of α-synuclein aggregation” (The Regents of the University of California, priority 2016, dated 2022).
Where “and” joins values, the source holds several entries; their conditions need not be identical. Identical values can stand only once. Entries after “also recorded” stand apart in the source; their conditions may differ. Ends that are not written are not given here.

What was measured:
[1] = system: PC12 cells; conditions: literature reference 20; cited from earlier work
[2] = target: T1, α-syn seeded by PD tissue-extracted filaments (Homo sapiens, UniProt P37840); assay: ThT assay of α-syn aggregation seeded by PD brain tissue-extracted filaments; format: biochemical; conditions: filaments from 4 different subjects (seeds A-D)
T1 construct: Full length α-syn was purified according to published protocols; made in house; host or cells: E. coli BL21 (DE3) gold
Description: We extracted insoluble protein aggregates from frozen autopsy PD brain tissues. We obtained tissues from 4 different subjects including the substantia nigra and frontal regions of one subject and temporal and frontal regions of other subjects. Using previously described protocols (Goedert et al. (1992) Neuron 8(1):159-168) that included precipitation with the ionic detergent sarkosyl, we extracted insoluble protein aggregates (FIG. 4A). All samples robustly seeded α-syn aggregation in vitro and in our cell culture model. In vitro addition of 2% seeds increased the ThT fluorescence 4 to 10 fold (FIG. 4B, 4C, 4D) along with a small decrease in the lag time. The seeded samples were then transfected in HEK cells. Consistent with the ThT assay, all seeded samples induced rapid puncta formation (FIG. 4E, 4F, 4G). Thus, fibrils extracted from PD brain tissues seeds recombinant protein, and the aggregates formed upon seeding induce rapid puncta formation in cell culture.
(§1) We tested the effect of the different inhibitors in preventing α-syn aggregation in the presence of PD extracted seeds. […] Next we tested the seeding potency of the α-syn aggregates formed in the presence of PD seeds and the different inhibitors (FIG. 6A).
Fibril formation assays were performed with 50 μM protein concentration in conditions identical to those used for aggregating proteins for seeding assay, but with the addition of ThT. All assays were carried out in black Nunc 96-well optical bottom plates (Thermo Scientific). Plates were agitated at 600 rpm in 3-mm rotation diameter in a Varioskan microplate reader (Thermo) at 37° C. Fluorescence measurements were recorded every 30 mins using λex=444 nm, λcm=482 nm, with an integration time of 200 μs.
Human frozen brain tissues were obtained from UCLA Brain Tumor Translational Resource (BTTR). Sarkosyl insoluble protein was extracted using previously described protocols. Briefly, frozen tissue was homogenized in ice cold PBS using a dounce homogenizer at 200 mg/mL. […]

[3] = system: HEK293T cells expressing YFP-labeled A53T α-syn; assay: Cell culture seeding assay: α-syn aggregated in the presence of inhibitors, mixture transfected, puncta counted; format: cell-based, human; conditions: for seeding competence of α-syn aggregated in presence of peptide (particles/puncta per well): 50 μM α-syn aggregated with 10, 5, 2, 1 fold excess (S71: equimolar and sub-stoichiometric), monitored up to 3 days
Description: (§2) We tested the efficacy of the inhibitors in preventing aggregation in a cell culture model. For these assays, we utilized two HEK293T cells that stably express YFP-labeled full-length WT α-syn and A53T α-syn (Sanders D W, et al. (2014) Neuron 82(6):1271-1288). In this model, lipofectamine-mediated transfection of recombinant fibrils leads to aggregation of the endogenous YFP-labeled protein that are seen as fluorescent puncta. Additionally, these puncta increase in size and number over time. This proliferation of aggregates over time is indicative of a ‘seeding’ phenomenon whereby a small amount of amyloid fibrils induces aggregation of the endogenous protein. First we tested the parent peptide segment, NACore to check its effect on seeding. α-syn was aggregated in the presence of molar excess of NACore (FIG. 2B). The mixture was transfected in cells and puncta formation was visualized and the number of puncta were counted as particles per well. […] Next we aggregated 50 μM α-syn in the presence of 500 μM, 250 μM, 100 μM and 50 μM inhibitor corresponding to 10, 5, 2 and 1 fold excess. The mixture was then transfected in cells and aggregation was monitored over time for up to 3 days by fluorescence imaging (FIG. 2A).
(§3) HEK293T cells that stably express YFP labeled WT α-syn and A53T α-syn were a generous gift from Dr. Marc Diamond. Cells were grown in Dulbecco's modified Eagle's medium (Gibco) supplemented with 10% fetal bovine serum (HyClone), 1% penicillin/streptomycin (Gibco), and 1% glutamax (Gibco) in a humidified incubator in 37° C., 5% CO2.
(§4) 10,000 cells in 90 μL media were plated in 96 well black wall plate (Cat #3660) and allowed to adhere overnight. α-syn was transfected at a final monomer concentration of 125 nM. Lipofectamine 2000 was diluted in OptiMEM media (2.5+17.5 μL) and incubated at room temperature for 5 mins. Protein aggregates were diluted in OptiMEM media (1:20) and sonicated in a water bath sonicator for 3 mins at low pulse. Diluted lipofectamine and protein samples were then mixed 1:1 and incubated at room temperature for 20 mins and thereafter 10 μL was added to each well. All samples are added in triplicates and experiments were repeated a minimum of two times. For co-transfection of α-syn fibrils with inhibitors, the fibrils and inhibitors were diluted in OptiMEM and incubated for 3 hours followed by sonication.
(§5) Puncta formation and cell growth was measured using Celigo Imaging Cell Cytometer allowing for unbiased measurement. Wells were imaged using fluorescent GFP channel and confluence was measured using Celigo analysis software. Images of entire well were taken and particles counted by ImageJ by particle analysis. Same settings were used to analyze wells of one plate at all days. Total particles counted in each well were normalized against the confluence and reported as particles per well.

[4] = system: HEK293T cells expressing YFP-labeled WT α-syn; assay: as above; format: cell-based, human; conditions: for seeding competence of α-syn aggregated in presence of peptide (particles/puncta per well): 50 μM α-syn aggregated with 10, 5, 2, 1 fold excess (S71: equimolar and sub-stoichiometric), monitored up to 3 days
Description: as §2, §3, §4, §5

[5] = system: HEK293T cells expressing YFP-labeled A53T α-syn; assay: Cell culture seeding assay: recombinant α-syn fibrils co-transfected with inhibitors; format: cell-based, human; conditions: for seeding capacity of α-syn fibrils co-transfected with peptide (particles per well normalized to buffer): 125 nM recombinant α-syn fibrils; for concentrations at which seeding was reduced: 125 nM α-syn fibrils co-transfected
Experimental: (§6) We tested the efficacy of the inhibitors to prevent seeding in the cell culture model (FIG. 3A). We transfected the α-syn fibrils along with the different inhibitors. […] S62 was effective at concentrations of 12.5 μM and 6.25 μM in both cell lines (FIG. 3E). S71 was effective at low concentrations of 1.25 μM.
as §3, §4, §5

[6] = system: HEK293T cells expressing YFP-labeled WT α-syn; assay: as above; format: cell-based, human; conditions: for seeding capacity of α-syn fibrils co-transfected with peptide (particles per well normalized to buffer): 125 nM recombinant α-syn fibrils; for concentrations at which seeding was reduced: 125 nM α-syn fibrils co-transfected
Experimental: as §6, §3, §4, §5

[7] = system: WT YFP-α-syn HEK cells; assay: PD filament seeded α-syn fibrils transfected along with inhibitors; format: cell-based, human; conditions: two different PD filaments; for seeding by PD filament seeded α-syn fibrils (puncta formation): fluorescence measured up to 6 days
Experimental: We tested the efficacy of the inhibitors in preventing seeding by PD fibrils in cell culture. α-syn aggregates formed in the presence of PD fibrils were transfected in WT HEK cells along with the different inhibitors (FIG. 7A).
(§7) Human frozen brain tissues were obtained from UCLA Brain Tumor Translational Resource (BTTR). Sarkosyl insoluble protein was extracted using previously described protocols. Briefly, frozen tissue was homogenized in ice cold PBS using a dounce homogenizer at 200 mg/mL. The homogenate was then diluted in buffer A (10 mM Tris 7.4, 800 mM NaCl, 1 mM EGTA, 10% Sucrose) to 50 mg/mL in total volume of 1 mL and centrifuged at 20,700 g for 20 min at 4° C. The supernatant was collected in an ultracentrifuge tube and pellet was resuspended in 0.5 mL buffer A followed by centrifugation at 20,700 g for 20 mins at 4° C. The supernatants pooled together. 150 μl 10% sarkosyl (w/v) in Millipore water was then added and incubated for 1 h at room temperature on flat rotating shaker at 700 rpm. The solution was then centrifuged at 100,000 g for 1 h at 4° C. using SW 55 Rotor (Beckman Coulter). The supernatanat was discarded and pellet was washed with 5 mL Buffer A and centrifuged at 100,000 g for 20 mins at 4° C. The pellet was resuspended in 100 μl 50 mM Tris Ph 7.4
10,000 cells in 90 μL media were plated in 96 well black wall plate (Cat #3660) and allowed to adhere overnight. α-syn was transfected at a final monomer concentration of 125 nM. Lipofectamine 2000 was diluted in OptiMEM media (2.5+17.5 μL) and incubated at room temperature for 5 mins. […]
as §5, with “Same settings were used to analyze wells of one plate at all days.” left out

[8] = system: WT α-syn expressing HEK cells; assay: Seeding potency in cells of α-syn aggregates formed in the presence of PD seeds and inhibitors; format: cell-based, human; conditions: three different PD brain extracted seeds
Description: as §1, §7, §4, §5

[9] = system: A53T α-syn expressing HEK cells; assay: as above; format: cell-based, human; conditions: three different PD brain extracted seeds
Description: as §1, §7, §4, §5

[10] = α-syn aggregated in presence of inhibitor

| Substance | toxicity compared with NACore [1] | inhibition of α-syn aggregation seeded by PD extracted seeds (ThT fluorescence) [2] | seeding competence of α-syn aggregated in presence of peptide (particles/puncta per well) [3] | seeding competence of α-syn aggregated in presence of peptide (particles/puncta per well) [4] | seeding capacity of α-syn fibrils co-transfected with peptide (particles per well normalized to buffer) [5] | concentrations at which seeding was reduced [5] | seeding capacity of α-syn fibrils co-transfected with peptide (particles per well normalized to buffer) [6] | concentrations at which seeding was reduced [6] | seeding by PD filament seeded α-syn fibrils (puncta formation) [7] | seeding potency of α-syn aggregates formed in presence of PD seeds and inhibitor (puncta formation) [8] | seeding potency of α-syn aggregates formed in presence of PD seeds and inhibitor (puncta formation) [9] | duration of reduction in seeding [3, 10] | duration of reduction in seeding [4, 10] | duration of reduction of seeding ([6]; single administration, co-transfection) | concentrations at which seeding by PD filament seeded fibrils was prevented/reduced [7] |
| --- | --- | --- | --- | --- | --- | --- | --- | --- | --- | --- | --- | --- | --- | --- | --- |
| AVVTGVTAV [SubNACore, AVVTGVTAV] | not as toxic | – | – | – | – | – | – | – | – | – | – | – | – | – | – |
| GAVVWGVTAVKKGRKKRRQRRRPQ (TAT tag) [Inhibitor S62] | – | effective against all seeds that were tested; also recorded: efficacy against all seeds | not seeding competent; also recorded: seeding incompetent | not seeding competent; also recorded: seeding incompetent | reduce seeding capacity; also recorded: effective | 12.5 µM and 6.25 µM | reduce seeding capacity; also recorded: effective | 12.5 µM and 6.25 µM | – | – | – | – | – | – | – |
| GAVVWGVTAVKKKKK (C-terminal poly-lysine tag) [Inhibitor S37, W mutation at Thr72 and poly-lysine tag at the C-terminus] | – | marginal reduction in ThT fluorescence | not seeding competent; also recorded: significant reduction in seeding | not seeding competent; also recorded: significant reduction in seeding | reduce seeding capacity; also recorded: significant reduction in seeding | 12.5 µM and 6.25 µM | reduce seeding capacity; also recorded: significant reduction in seeding | 12.5 µM and 6.25 µM | prevented seeding; also recorded: prevented puncta formation | not effective in reducing the seeding potency of aggregates | not effective in reducing the seeding potency of aggregates | up to 2 days | up to 2 days | up to 2 days | – |
| YGRKKRRQRRRAVVT{N-me-Gly}VTAVAE [Inhibitor S71] | – | effective against seeds B and D; also recorded: efficacy against all seeds | not seeding competent; also recorded: reduce the seeding potency of the aggregates | not seeding competent; also recorded: reduce the seeding potency of the aggregates | reduce seeding capacity; also recorded: effective | 1.25 µM | reduce seeding capacity; also recorded: effective | 1.25 µM | reduced seeding; also recorded: prevented seeding | effective against all three seeds; also recorded: did not induce puncta formation | effective against all three seeds; also recorded: did not induce puncta formation | – | – | – | 6.25 µM |
